Patent publication US8143403B2 (Bristol-Myers Squibb Company, priority 2008, dated 2012)
Marks after values point to notes of the source that are not given here.

Assays:
[1] = system: CGRP-induced increase in laser Doppler facial blood flow; assay: Inhibition of CGRP-induced increase in laser Doppler facial blood flow in non-human primate; format: in vivo, common marmoset (Callithrix jacchus); conditions: pretreat −30 min, hαCGRP 10 μg/kg i.v.
Procedure: FIG. 4. […] Data are peak % change from baseline±sem, with each animal serving as its own control.
Saturation/Scatchard Analysis. […] Saturation data were analyzed using a one site binding equation to estimate apparent equilibrium dissociation constant (Kd) and the maximum number of binding sites (Bmax) (Prizm v4.0, Graphpad). […] Functional Antagonism/Schild analysis. Agonist stimulation of CGRP receptor complex leads to cyclic AMP (adenosine 3′5′-cyclic monophosphate) production via Gs-dependent activation of an adenylate cyclase (Juaneda C et al., TiPS, 2000; 21:432-438). Consequently, CGRP receptor antagonists inhibit CGRP-induced cyclic AMP formation in SK-N-MC cells which natively express the CGRP receptor complex (Doods H et al., Br J Pharmacol, 2000; 129(3):420-423). […] A Schild analysis format was used, which allowed investigation of the mechanism of antagonism. […] Various concentrations of CGRP were added and the cells were allowed to incubate 30 min at room temperature. The cells were lysed with lysis reagent and cAMP concentrations were determined by HTRF according to the manufacturer's instructions. A standard curve using known quantities of cAMP was evaluated in parallel to allow conversion of HTRF ratio to nM cAMP. The resulting curves were then evaluated using a Gaddum/Schild equation individually and with global fitting (Prizm v4.0, Graphpad). […] To obtain a global fit the following parameters were shared (top, bottom, logEC50, Hill slope and pA2) and all curves were fit simultaneously. […] Non-Terminal Method for Assessing In Vivo Efficacy of Small Molecule CGRP-Receptor Antagonists in Mammals Overview. […] Non-human primates (e.g., marmosets) are the only animals known to have human-like CGRP receptor pharmacology conferred by the presence of the specific amino acid residue (Trp74) in their RAMP1 sequence which is responsible for the phenotype of the human receptor (Mallee et al. J Biol Chem 2002 277:14294). Since current migraine models primarily use rats (Escott et al. Brain Res 1995 669:93; Williamson et al. Cephalalgia 1997 17:525), or are invasive, terminal procedures in primates (Doods et al. Br J Pharmacol 2000 129:420), a novel non-invasive, survival model in non-human primates for in vivo efficacy assessment of CGRP-receptor antagonists was developed. […] Peptide and small-molecule CGRP-receptor antagonists were used to validate the non-human primate model. […] Animals. Adult male and female common marmosets (Callithrix jacchus) purchased from Harlan and weighing 350-550 g served as subjects. Anesthesia & Surgical Preparation. Animals are anesthetized by isoflurane inhalation in an induction chamber (4-5% rapid induction, maintained with 1-2.5%; Solomon et al., 1999).

Human CGRP Receptor = biological target: T1, Human CGRP Receptor (Homo sapiens, UniProt O60894+Q16602); assay: Radioligand binding assay, [125I]-CGRP displacement on SK-N-MC membranes; conditions: displacement of [125I]-CGRP (18 pM final), 2 h room temperature
T1 construct: Crude membranes were prepared from SK-N-MC cells expressing CGRP receptors; endogenous in cells; host or cells: SK-N-MC cells (crude membranes)
T1 sequence (Q16602 23-461): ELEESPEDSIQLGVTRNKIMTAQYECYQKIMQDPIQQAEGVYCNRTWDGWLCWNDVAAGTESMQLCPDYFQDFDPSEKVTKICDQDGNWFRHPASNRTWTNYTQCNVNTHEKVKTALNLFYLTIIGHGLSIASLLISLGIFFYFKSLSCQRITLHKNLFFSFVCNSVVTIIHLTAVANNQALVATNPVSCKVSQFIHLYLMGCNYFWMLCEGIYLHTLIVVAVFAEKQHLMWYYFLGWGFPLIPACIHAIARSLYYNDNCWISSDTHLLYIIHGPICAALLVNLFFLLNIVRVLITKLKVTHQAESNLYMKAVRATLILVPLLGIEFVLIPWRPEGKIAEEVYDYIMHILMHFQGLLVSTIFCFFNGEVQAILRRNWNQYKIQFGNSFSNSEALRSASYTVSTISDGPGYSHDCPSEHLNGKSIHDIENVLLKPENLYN
T1 sequence (O60894 27-148): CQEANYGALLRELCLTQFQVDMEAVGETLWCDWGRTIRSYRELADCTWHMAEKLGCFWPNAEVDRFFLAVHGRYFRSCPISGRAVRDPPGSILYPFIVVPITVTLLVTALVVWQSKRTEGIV
Procedure: Tissue Culture. SK-N-MC cells were grown at 37° C. in 5% CO2 as a monolayer in medium consisting of MEM with Earle's salts and L-glutamine (Invitrogen) supplemented with 10% fetal bovine serum (Invitrogen).
Membrane Preparation. Crude membranes were prepared from SK-N-MC cells expressing CGRP receptors. The cells were rinsed twice with phosphate-buffered saline (155 mM NaCl, 3.3 mM Na2HPO4, 1.1 mM KH2PO4, pH 7.4), and incubated for 5-10 min. at 4° C. in hypotonic lysis buffer consisting of 10 mM Tris (pH 7.4) and 5 mM EDTA. The cells were transferred from plates to polypropylene tubes (16×100 mm) and homogenized using a polytron. Homogenates were centrifuged at 32,000×g for 30 min. The pellets were resuspended in cold hypotonic lysis buffer with 0.1% mammalian protease inhibitor cocktail (Sigma) and assayed for protein concentration. The SK-N-MC homogenate was aliquoted and stored at −80° C. Radioligand Binding Assay. The compounds of invention were solubilized and carried through serial dilutions using 100% DMSO. Aliquots from the compound serial dilutions were further diluted 25 fold into assay buffer (50 mM Tris-Cl pH 7.5, 5 mM MgCl2, 0.005% Triton X-100) and transferred (volume 50 μl) into 96 well assay plates. [^125I]-CGRP (GE Healthcare or Perkin-Elmer) was diluted to 72 pM in assay buffer and a volume of 50 μl was added to each well. SK-N-MC membranes were thawed, diluted in assay buffer with fresh 0.1% mammalian protease inhibitor cocktail (Sigma), and re-homogenized. SK-N-MC homogenate (7 μg/well) was added in a volume of 100 μl. The assay plates were then incubated at room temperature for 2 h. Assays were stopped by addition of excess cold wash buffer (50 mM Tris-Cl pH 7.5, 0.1% BSA) immediately followed by filtration over glass fiber filters (Whatman GF/B) previously soaked in 0.5% PEI. Non-specific binding was defined with 1 μM beta-CGRP (Bachem). Protein bound radioactivity was determined using a gamma or scintillation counter. The resulting data was analyzed using a four parameter competitive binding equation (XLfit v2.0) and the IC50 was defined as the concentration of a compound of invention required to displace 50% of radioligand binding. Final assay concentration of [^125I]-CGRP was 18 pM. […] All compounds of invention were evaluated in at least two separate experiments.

**Q.** With `O=C(O[C@@H]1CC[C@@H](c2cccc(F)c2F)Cc2cccnc21)N1CCC(n2c(=O)[nH]c3ncccc32)CC1` [Example 20] as the compound, how does the “% Inhibition” value ([1]; 0.1 mg/kg s.c., 15 min) read?
**A.** 9.9%

**Q.** And the “% Inhibition” value ([1]; 0.1 mg/kg s.c., 60 min)?
**A.** −6.7%

**Q.** And the “% Inhibition” value ([1]; 0.1 mg/kg s.c., 105 min)?
**A.** −4.9%

**Q.** What about the “% Inhibition” value ([1]; 0.3 mg/kg s.c., 15 min) of the same compound?
**A.** 28.8%

**Q.** What about the “% Inhibition” value ([1]; 0.3 mg/kg s.c., 60 min) of the same compound?
**A.** 27.6* %

**Q.** What about the “% Inhibition” value ([1]; 0.3 mg/kg s.c., 105 min) of the same compound?
**A.** 41.2* %

**Q.** And the “% Inhibition” value ([1]; 3 mg/kg s.c., 15 min)?
**A.** 26.5%

**Q.** And the “% Inhibition” value ([1]; 3 mg/kg s.c., 60 min)?
**A.** 36.7* %

**Q.** And the “% Inhibition” value ([1]; 3 mg/kg s.c., 105 min)?
**A.** 39.0* %

**Q.** What about the “% Inhibition” value ([1]; 7 mg/kg s.c., 15 min) of the same compound?
**A.** 25.1%

**Q.** And the “% Inhibition” value ([1]; 7 mg/kg s.c., 60 min)?
**A.** 53.9* %

**Q.** What about the “% Inhibition” value ([1]; 7 mg/kg s.c., 105 min) of the same compound?
**A.** 70.0* %

**Q.** And the IC50 (Human CGRP Receptor)?
**A.** 0.12 nM
